Literature values in patent US5472628A, “Liquid detergents with an aryl acid for inhibition of proteolytic enzyme” (The Procter & Gamble Company, priority 1994, dated 1995).

Target: subtilisin
Conditions: quoted in the description, read-out: Ki (inhibition constants of boronic acids for subtilisin)

OB(O)c1ccc(Br)cc1 [4-bromobenzene boronic acid]
Ki: 10 µM
